Measured values from patent publication US20220281846A1, “COMPOUNDS AND COMPOSITIONS FOR THE TREATMENT OF RESPIRATORY DISEASES” (THE UNIVERSITY OF MELBOURNE, priority 2018, published 2022).

Legend:
MINK/MINK1 = biological target: T1, MINK/MINK1 (Homo sapiens, UniProt Q8N4C8); test: Kinase inhibition assay (HotSpot), MINK/MINK1; type: biochemical; details: 10 μM ATP, 10-dose IC50 mode; read-out: Compound IC50 (M) MINK/MINK1
T1 construct: purchased Reaction Biology Corp

ERBB4/HER4 = biological target: T2, ERBB4/HER4 (Homo sapiens, UniProt Q15303); test: Kinase inhibition assay (HotSpot), ERBB4/HER4; type: biochemical; details: 10 μM ATP, 10-dose IC50 mode; read-out: Compound IC50 (M) ERBB4/HER4
T2 construct: purchased Reaction Biology Corp

[1] = biological target: T3, human recombinant Casein kinase 18 (CK1δ) (Homo sapiens, UniProt P48730); test: Kinase inhibition assay (HotSpot, Reaction Biology Corp), CK1δ; type: biochemical; details: 10 μM ATP, 10-dose IC50 mode; read-out: Compound IC50 (M) CK1δ
T3 construct: purchased Reaction Biology Corp

[2] = system: TGF-β-induced IL-11 in primary human parenchymal fibroblast cells (pFbs); test: Human parenchymal fibroblast cell assay, TGF-β-induced IL-11 (ELISA); type: cell-based; details: compounds 0.1-10 μM 30 min prior to TGF-β1, 16-24 hours, 4.00* is assigned to compounds that failed to cause 50% or more inhibition at 10 µM, read-out: pIC50 IL-11 suppression (converted)
Protocol: Human Parenchymal Fibroblast Cell Assay
Primary human parenchymal fibroblast cells (pFbs) were cultured from parenchyma of lung resection specimens and from non-transplanted lungs of donors without chronic respiratory disease. pFbs were passaged in Dulbecco's Modified Eagle's Media (DMEM) containing 10% (v/v) heat-inactivated fetal calf serum (FCS), 15 mM HEPES, 0.2% (v/v) sodium bicarbonate, 2 mM L-glutamine, 1% (v/v) non-essential amino acids, 1% (v/v) sodium pyruvate, 2.5 μg/mL amphotericin, 5 IU/mL penicillin and 50 μg/mL streptomycin. In some experiments the human lung fibroblast cell line, MRC5 (sourced from ATTC) was used as indicated. The MRC5 line was maintained under the same conditions as described for the pFb.
Prior to experimentation, pFb were incubated in serum-free DMEM containing 0.25% bovine serum albumin (BSA) and insulin-transferrin-selenium-containing supplement (Monomed A; CSL, Parkville, Melbourne, Australia). The cells were incubated with small molecular CK1δ inhibitors (0.1-10 μM) for 30 min prior to […] TGF-β1 (R&D Systems, Minneapolis, Minn.) and the incubation continued for 16-24 hours prior to harvest of supernatant for detection of immunoreactive IL-11. Stock solutions were made as 10 mM in 100% DMSO and diluted to the required concentration in medium containing 0.1% DMSO (final concentration).
Supernatants were collected for measurement of IL-11 (R&D DuoSet, DY218) by ELISA following the manufacturers' instructions. Generally, capture antibodies were initially diluted to the recommended concentrations using PBS buffer, and then used to coat the wells of 96-well microplates (Greiner, #655061) by adding 50 μL/well and incubated overnight at room temperature. Next day, solutions were discarded and wells were washed 3 times with wash buffer (PBS containing 0.1% (v/v) Tween-20) prior to the addition of 200 μL of blocking solution (PBS containing 1% (v/v) BSA) for 1 hour to block non-specific sites. Plates were then washed 3 times with wash buffer and 50 μL of samples or standards were then added to wells and incubated for 2 hours at room temperature. After the incubation, plates were washed 3 times with wash buffer and 50 μL of detection antibodies were added to wells and incubated for 2 hours at room temperature. Plates were then washed 3 times before adding streptavidin-conjugated horseradish peroxidase (at the recommended concentrations) for 45 min. Plates were then washed 5 times with wash buffer and 100 μL TMB substrate solution (equal parts A and B, BD Biosciences) was added to each well until sufficient signals emerged. The reactions were inactivated by adding 100 μL sulphuric acid (2M H2SO4). The absorbance was measured at 450 nm using the Multiskan Ascent® plate reader. The absorbance of the cytokine standards was fitted to a logistic equation, allowing the concentrations of cytokine in samples to be determined.
PIC50 values (the negative log of the concentration suppressing IL-11 level by 50%) for inhibition of TGF-β-induced IL-11 were interpolated from the linear regression of log concentration small molecule versus IL-11 level (Table 4 and FIG. 2).

T2 sequence (Q15303 26-1308): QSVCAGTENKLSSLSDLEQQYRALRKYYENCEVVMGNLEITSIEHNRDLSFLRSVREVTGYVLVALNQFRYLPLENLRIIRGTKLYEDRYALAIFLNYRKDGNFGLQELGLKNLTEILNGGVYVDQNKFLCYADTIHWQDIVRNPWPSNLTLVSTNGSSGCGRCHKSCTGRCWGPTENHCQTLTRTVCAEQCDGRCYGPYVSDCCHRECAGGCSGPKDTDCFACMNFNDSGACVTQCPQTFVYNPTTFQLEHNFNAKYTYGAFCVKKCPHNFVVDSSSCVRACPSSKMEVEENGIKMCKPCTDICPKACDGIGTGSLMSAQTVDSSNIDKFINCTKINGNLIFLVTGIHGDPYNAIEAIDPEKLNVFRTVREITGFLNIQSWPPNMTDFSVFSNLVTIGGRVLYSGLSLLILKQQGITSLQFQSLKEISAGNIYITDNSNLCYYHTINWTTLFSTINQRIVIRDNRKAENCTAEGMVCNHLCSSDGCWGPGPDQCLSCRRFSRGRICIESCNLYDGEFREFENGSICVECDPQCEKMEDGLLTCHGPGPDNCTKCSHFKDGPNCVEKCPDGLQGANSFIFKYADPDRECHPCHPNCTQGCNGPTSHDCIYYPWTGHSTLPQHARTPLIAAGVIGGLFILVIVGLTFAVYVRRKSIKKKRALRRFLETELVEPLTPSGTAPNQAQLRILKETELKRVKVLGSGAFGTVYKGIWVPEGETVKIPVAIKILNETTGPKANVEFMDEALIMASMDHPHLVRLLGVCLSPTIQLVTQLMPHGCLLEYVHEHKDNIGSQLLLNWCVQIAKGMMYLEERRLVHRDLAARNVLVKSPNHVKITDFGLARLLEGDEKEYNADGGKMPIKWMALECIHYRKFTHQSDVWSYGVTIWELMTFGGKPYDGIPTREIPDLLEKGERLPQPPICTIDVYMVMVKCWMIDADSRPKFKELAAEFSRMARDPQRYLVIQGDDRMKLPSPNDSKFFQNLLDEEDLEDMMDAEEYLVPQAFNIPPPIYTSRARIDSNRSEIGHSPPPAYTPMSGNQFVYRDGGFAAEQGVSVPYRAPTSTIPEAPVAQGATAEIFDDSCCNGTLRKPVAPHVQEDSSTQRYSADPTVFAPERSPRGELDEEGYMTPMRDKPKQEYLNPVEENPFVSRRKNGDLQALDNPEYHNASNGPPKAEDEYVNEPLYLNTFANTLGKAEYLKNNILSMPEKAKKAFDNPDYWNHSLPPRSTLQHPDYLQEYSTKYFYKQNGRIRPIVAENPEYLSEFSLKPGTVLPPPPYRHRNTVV
T3 sequence (P48730 whole entry): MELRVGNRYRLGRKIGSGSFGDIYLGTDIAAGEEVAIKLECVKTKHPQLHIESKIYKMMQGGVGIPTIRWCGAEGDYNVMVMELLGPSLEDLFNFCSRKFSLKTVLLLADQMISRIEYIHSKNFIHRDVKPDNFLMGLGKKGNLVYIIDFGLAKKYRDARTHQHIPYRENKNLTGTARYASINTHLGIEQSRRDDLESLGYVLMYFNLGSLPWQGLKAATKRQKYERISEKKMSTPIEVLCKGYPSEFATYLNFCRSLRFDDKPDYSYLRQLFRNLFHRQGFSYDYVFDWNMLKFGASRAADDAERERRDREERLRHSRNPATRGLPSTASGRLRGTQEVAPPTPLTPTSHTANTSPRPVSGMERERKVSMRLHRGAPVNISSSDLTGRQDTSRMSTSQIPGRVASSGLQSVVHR
T1 sequence (Q8N4C8 whole entry): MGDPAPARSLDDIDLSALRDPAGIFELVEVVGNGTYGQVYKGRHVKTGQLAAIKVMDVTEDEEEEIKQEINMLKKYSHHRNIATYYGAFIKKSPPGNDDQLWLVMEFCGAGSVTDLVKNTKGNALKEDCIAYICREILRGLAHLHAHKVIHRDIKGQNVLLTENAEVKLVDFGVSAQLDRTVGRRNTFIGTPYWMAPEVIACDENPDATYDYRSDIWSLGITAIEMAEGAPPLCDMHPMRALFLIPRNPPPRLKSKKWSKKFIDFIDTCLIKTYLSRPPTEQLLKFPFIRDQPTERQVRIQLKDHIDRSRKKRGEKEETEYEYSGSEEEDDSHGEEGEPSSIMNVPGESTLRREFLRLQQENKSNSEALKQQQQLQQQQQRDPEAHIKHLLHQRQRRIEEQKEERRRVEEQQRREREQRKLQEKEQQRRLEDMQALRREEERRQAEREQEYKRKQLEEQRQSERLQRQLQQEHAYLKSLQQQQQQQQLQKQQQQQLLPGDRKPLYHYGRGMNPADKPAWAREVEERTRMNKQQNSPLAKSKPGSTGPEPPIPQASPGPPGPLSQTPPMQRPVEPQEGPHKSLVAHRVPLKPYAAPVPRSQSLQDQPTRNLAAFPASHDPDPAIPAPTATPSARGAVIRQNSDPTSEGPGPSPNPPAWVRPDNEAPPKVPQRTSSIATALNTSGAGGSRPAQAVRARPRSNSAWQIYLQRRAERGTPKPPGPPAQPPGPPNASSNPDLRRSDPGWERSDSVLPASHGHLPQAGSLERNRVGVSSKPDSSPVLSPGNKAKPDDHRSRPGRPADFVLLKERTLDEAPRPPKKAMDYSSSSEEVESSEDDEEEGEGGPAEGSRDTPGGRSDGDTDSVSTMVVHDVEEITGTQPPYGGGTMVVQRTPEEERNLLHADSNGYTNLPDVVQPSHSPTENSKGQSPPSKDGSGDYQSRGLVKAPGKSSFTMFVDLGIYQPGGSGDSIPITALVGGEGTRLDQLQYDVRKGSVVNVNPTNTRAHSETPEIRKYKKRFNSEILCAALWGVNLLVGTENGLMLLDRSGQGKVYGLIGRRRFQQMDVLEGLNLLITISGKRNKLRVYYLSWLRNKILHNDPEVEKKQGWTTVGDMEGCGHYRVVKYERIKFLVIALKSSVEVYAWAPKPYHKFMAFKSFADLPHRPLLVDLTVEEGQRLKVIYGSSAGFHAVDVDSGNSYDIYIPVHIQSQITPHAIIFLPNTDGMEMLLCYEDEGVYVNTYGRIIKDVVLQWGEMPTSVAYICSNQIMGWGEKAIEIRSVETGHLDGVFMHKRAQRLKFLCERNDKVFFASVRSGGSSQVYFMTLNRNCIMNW

Structure (SMILES) | IC50 (MINK/MINK1) [M] | IC50 (ERBB4/HER4) [M] | IC50 [1] [M] | IC50 [2] [nM]
Fc1ccc(-c2ncn(C3CCCCC3)c2-c2ccnc(NCc3ccccc3F)n2)cc1 [ZH2-118, 4-(1-Cyclohexyl-4-(4-fluorophenyl)-1H-imidazol-5-yl)-N-(2-fluorobenzyl)pyrimidin-2-amine] | 4.21e-08 | 3.66e-06 | 9.6e-09 | 1450
CC(C)(C)Cn1cnc(-c2ccc(F)cc2)c1-c1ccnc(N)n1 [ZH3-78, 4-(4-(4-Fluorophenyl)-1-neopentyl-1H-imidazol-5-yl)pyrimidin-2-amine] | 8.09e-07 | 8.35e-06 | 5.93e-08 | 8510
Fc1ccc(CNc2nccc(-c3c(-c4ccc(F)cc4)ncn3C3CCCCC3)n2)cc1 [ZH2-122, 4-(1-Cyclohexyl-4-(4-fluorophenyl)-1H-imidazol-5-yl)-N-(4-fluorobenzyl)pyrimidin-2-amine] | 1.95e-08 | – | 5.07e-09 | 2450
Fc1ccc(-c2ncn(C3CCCCC3)c2-c2ccnc(NCc3cccc(F)c3)n2)cc1 [ZH2-114, 4-(1-Cyclohexyl-4-(4-fluorophenyl)-1H-imidazol-5-yl)-N-(3-fluorobenzyl)pyrimidin-2-amine] | 3.33e-08 | – | 3.67e-09 | –
Nc1nccc(-c2c(-c3ccc(F)cc3)ncn2CC2CCC(F)(F)CC2)n1 [ZH3-130, 4-(1-((4,4-Difluorocyclohexyl)methyl)-4-(4-fluorophenyl)-1H-imidazol-5-yl)pyrimidin-2-amine] | 8.9e-07 | 1.42e-06 | 6.13e-09 | 832
Nc1nccc(-c2c(-c3ccc(F)cc3)ncn2C2CCCC2)n1 [ZH3-58, 4-(1-Cyclopentyl-4-(4-fluorophenyl)-1H-imidazol-5-yl)pyrimidin-2-amine] | 2.17e-07 | 1.39e-06 | 8.33e-09 | 550
OCCNc1nccc(-c2c(-c3ccc(F)cc3)ncn2CC2CCCCC2)n1 [ZH3-118, 2-((4-(1-(Cyclohexylmethyl)-4-(4-fluorophenyl)-1H-imidazol-5-yl)pyrimidin-2-yl)amino)ethan-1-ol] | 1.97e-07 | 5.13e-07 | 2.13e-09 | 8320
CCn1cnc(-c2ccc(F)cc2)c1-c1ccnc(NC2CCC2)n1 [ZH3-122, N-Cyclobutyl-4-(1-ethyl-4-(4-fluorophenyl)-1H-imidazol-5-yl)pyrimidin-2-amine] | 1.83e-08 | 4.42e-06 | 4.16e-09 | 178
Fc1ccc(-c2ncn(CC3CCCCC3)c2-c2ccnc(NC3COC3)n2)cc1 [ZH3-114, 4-(1-(Cyclohexylmethyl)-4-(4-fluorophenyl)-1H-imidazol-5-yl)-N-(oxetan-3-yl)pyrimidin-2-amine] | 9.44e-08 | 3e-06 | 1.17e-09 | 10500
CCNc1nccc(-c2c(-c3ccc(F)cc3)ncn2C2CCCCC2)n1 [ZH2-78, 4-(1-Cyclohexyl-4-(4-fluorophenyl)-1H-imidazol-5-yl)-N-ethylpyrimidin-2-amine] | 2.26e-08 | 7.5e-07 | 4.7e-09 | 295

The next lines start with results.

IC50 (MINK/MINK1) [M] | IC50 (ERBB4/HER4) [M] | IC50 [1] [M] | Structure (SMILES) | IC50 [2] [nM]
1.7e-07 | – | 1.73e-09 | Fc1ccc(-c2ncn(C3CCCCC3)c2-c2ccnc(NC3CCOCC3)n2)cc1 [ZH2-54, 4-(1-Cyclohexyl-4-(4-fluorophenyl)-1H-imidazol-5-yl)-N-(tetrahydro-2H-pyran-4-yl)pyrimidin-2-amine] | 4370
1.1e-07 | – | 4.93e-09 | Fc1ccc(-c2ncn(C3CCCCC3)c2-c2ccnc(NC3CCC(F)(F)CC3)n2)cc1 [ZH2-146, 4-(1-Cyclohexyl-4-(4-fluorophenyl)-1H-imidazol-5-yl)-N-(4,4-difluorocyclohexyl)pyrimidin-2-amine] | 11500
7.53e-09 | > 1e-05 | 1.31e-09 | O[C@H]1C[C@@H](Nc2nccc(-c3c(-c4ccc(F)cc4)ncn3C3CCCCC3)n2)C1 [ZH3-62, cis-3-((4-(1-Cyclohexyl-4-(4-fluorophenyl)-1H-imidazol-5-yl)pyrimidin-2-yl)amino)cyclobutan-1-ol] | 1000
6.69e-08 | 9.01e-06 | 4.99e-09 | Fc1ccc(-c2ncn(C3CCCCC3)c2-c2ccnc(NC3CCCC3)n2)cc1 [ZH2-46, 4-(1-Cyclohexyl-4-(4-fluorophenyl)-1H-imidazol-5-yl)-N-cyclopentylpyrimidin-2-amine] | –
2.16e-08 | – | 1e-09 | Fc1ccc(-c2ncn(C3CCCCC3)c2-c2ccnc(NC3CC(F)(F)C3)n2)cc1 [ZH3-70, 4-(1-Cyclohexyl-4-(4-fluorophenyl)-1H-imidazol-5-yl)-N-(3,3-difluorocyclobutyl)pyrimidin-2-amine] | –
1.06e-08 | 1.48e-06 | 7.59e-09 | Fc1ccc(-c2ncn(C3CCCCC3)c2-c2ccnc(NC3CC3)n2)cc1 [ZH3-86, 4-(1-Cyclohexyl-4-(4-fluorophenyl)-1H-imidazol-5-yl)-N-cyclopropylpyrimidin-2-amine] | 339
3.77e-08 | – | 1.15e-09 | O=S1(=O)CCC(Nc2nccc(-c3c(-c4ccc(F)cc4)ncn3C3CCCCC3)n2)CC1 [ZH3-134, 4-((4-(1-Cyclohexyl-4-(4-fluorophenyl)-1H-imidazol-5-yl)pyrimidin-2-yl)amino)tetrahydro-2H-thiopyran 1,1-dioxide] | –
2.36e-07 | > 1e-05 | 1.95e-08 | Fc1ccc(-c2ncn(C3CCCCC3)c2-c2ccnc(NC3CCCCC3)n2)cc1 [ZH2-58, N-Cyclohexyl-4-(1-cyclohexyl-4-(4-fluorophenyl)-1H-imidazol-5-yl)pyrimidin-2-amine] | 29500
1.73e-08 | 4.41e-06 | 1.36e-09 | O[C@H]1C[C@H](Nc2nccc(-c3c(-c4ccc(F)cc4)ncn3C3CCCCC3)n2)C1 [ZH3-50, trans-3-((4-(1-Cyclohexyl-4-(4-fluorophenyl)-1H-imidazol-5-yl)pyrimidin-2-yl)amino)cyclobutan-1-ol] | 417
